According to ChEMBL document CHEMBL6120969, “Distinctive Immune Signatures Driven by Structural Alterations in Desmuramylpeptide NOD2 Agonists” (J Med Chem, 2024):
Activity calls are given as the source filed them. The calls are words filed in the database; no cut-off is given here.

Columns and labels:
[1] = Cytotoxicity against human HEK-Blue hNOD2 cells assessed as metabolic activity at 10 uM incubated for 18 hes by MTT assay; type: toxicity, cell-based; settings: hek-blue hnod2, 10 µM
PBMC [2] = experiment: Immunomodulatory activity in human PBMC cells assessed as increase in IL-4 level at 2 uM incubated for 18 hrs y flow cytometry analysis; type: functional, cell-based
How it was run: (§1)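 Human donor PBMCs (Ficoll-Paque; 1 × 10^6 cells/mL, 500 μL, 48-well plates) were treated with compounds at 2 μM or 0.1% DMSO vehicle without LPS for 18 h at 37 °C, 5% CO2. Cytokines in cell-free supernatants were quantified with the LEGENDplex Human Essential Immune Response Panel on a flow cytometer against kit recombinant standard curves. Four independent replicates; two-way ANOVA with Tukey's test.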

PBMC [3] = experiment: Immunomodulatory activity in human PBMC cells assessed as increase in IL-2 level at 2 uM incubated for 18 hrs y flow cytometry analysis; type: functional, cell-based; how it was run: as §1
PBMC [4] = experiment: Immunomodulatory activity in human PBMC cells assessed as increase in IP-10 level at 2 uM incubated for 18 hrs y flow cytometry analysis; type: functional, cell-based; how it was run: as §1
PBMC [5] = experiment: Immunomodulatory activity in human PBMC cells assessed as increase in IL-1beta level at 2 uM incubated for 18 hrs y flow cytometry analysis; type: functional, cell-based; how it was run: as §1
PBMC [6] = experiment: Immunomodulatory activity in human PBMC cells assessed as increase in TNF-alpha level at 2 uM incubated for 18 hrs y flow cytometry analysis; type: functional, cell-based; how it was run: as §1
PBMC [7] = experiment: Immunomodulatory activity in human PBMC cells assessed as increase in MCP-1 level at 2 uM incubated for 18 hrs y flow cytometry analysis; type: functional, cell-based; how it was run: as §1
PBMC [8] = experiment: Immunomodulatory activity in human PBMC cells assessed as increase in IL-17A level at 2 uM incubated for 18 hrs y flow cytometry analysis; type: functional, cell-based; how it was run: as §1
PBMC [9] = experiment: Immunomodulatory activity in human PBMC cells assessed as increase in IL-6 level at 2 uM incubated for 18 hrs y flow cytometry analysis; type: functional, cell-based; how it was run: as §1
PBMC [10] = experiment: Immunomodulatory activity in human PBMC cells assessed as increase in IL-10 level at 2 uM incubated for 18 hrs y flow cytometry analysis; type: functional, cell-based; how it was run: as §1
PBMC [11] = experiment: Immunomodulatory activity in human PBMC cells assessed as increase in IFN-gamma level at 2 uM incubated for 18 hrs y flow cytometry analysis; type: functional, cell-based; how it was run: as §1
PBMC [12] = experiment: Immunomodulatory activity in human PBMC cells assessed as increase in IL-12p70 level at 2 uM incubated for 18 hrs y flow cytometry analysis; type: functional, cell-based; how it was run: as §1
PBMC [13] = experiment: Immunomodulatory activity in human PBMC cells assessed as increase in IL-8 level at 2 uM incubated for 18 hrs y flow cytometry analysis; type: functional, cell-based; how it was run: as §1
PBMC [14] = experiment: Immunomodulatory activity in human PBMC cells assessed as increase in TGF-beta1 level at 2 uM incubated for 18 hrs y flow cytometry analysis; type: functional, cell-based; how it was run: as §1
PBMC [15] = experiment: Immunomodulatory activity in human PBMC cells assessed as increase in LPS-induced IL-1beta level at 2 uM incubated for 18 hrs y flow cytometry analysis; type: functional, cell-based
PBMC [16] = experiment: Immunomodulatory activity in human PBMC cells assessed as increase in LPS-induced IL-6 level at 2 uM incubated for 18 hrs y flow cytometry analysis; type: functional, cell-based
How it was run: (§2)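 Peripheral blood mononuclear cells from human donors were isolated with Ficoll-Paque and plated in 48-well plates at 1 × 10^6 cells/mL, 500 μL per well. Cells received compounds at 2 μM or 0.1% DMSO together with LPS (10 ng/mL) and were kept for 18 h at 37 °C, 5% CO2. Cytokine levels in cell-free supernatants were measured by flow cytometry with the LEGENDplex Human Essential Immune Response Panel, using the kit's recombinant standard curves. Data come from four independent replicates analysed by two-way ANOVA with Tukey's test.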

PBMC [17] = experiment: Immunomodulatory activity in human PBMC cells assessed as increase in LPS-induced IL-10 level at 2 uM incubated for 18 hrs y flow cytometry analysis; type: functional, cell-based; how it was run: as §2
PBMC [18] = experiment: Immunomodulatory activity in human PBMC cells assessed as increase in LPS-induced TNF-alpha level at 2 uM incubated for 18 hrs y flow cytometry analysis; type: functional, cell-based
PBMC [19] = experiment: Immunomodulatory activity in human PBMC cells assessed as increase in LPS-induced IL-12p70 level at 2 uM incubated for 18 hrs y flow cytometry analysis; type: functional, cell-based
PBMC [20] = experiment: Immunomodulatory activity in human PBMC cells assessed as increase in LPS-induced IFN-gamma level at 2 uM incubated for 18 hrs y flow cytometry analysis; type: functional, cell-based
PBMC [21] = experiment: Immunomodulatory activity in human PBMC cells assessed as increase in LPS-induced MCP-1 level at 2 uM incubated for 18 hrs y flow cytometry analysis; type: functional, cell-based; how it was run: as §2
PBMC [22] = experiment: Immunomodulatory activity in human PBMC cells assessed as increase in LPS-induced IP-10 level at 2 uM incubated for 18 hrs y flow cytometry analysis; type: functional, cell-based; how it was run: as §2
PBMC [23] = experiment: Cytotoxicity against human PBMC cells co-cultured with human K562 cells at 10 uM incubated for 4 hrs; type: functional, cell-based
How it was run: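 Killing was scored as the share of K562 cells positive for both CFSE and Sytox blue. Human PBMCs were seeded in 96-well plates at 4 × 10^5 per well and pretreated for 18 h with compounds at 10 μM, with 0.1% DMSO as vehicle. CFSE-stained K562 cells were then added at 1 × 10^4 per well (effector:target 40:1) for 4 h at 37 °C, 5% CO2, before Sytox blue staining and reading on an Attune NxT flow cytometer. Assays ran in duplicate across three independent biological replicates and were analysed by one-way ANOVA with Dunnett's test.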

[24] = Cytotoxicity against human PBMC cells at 10 uM incubated for 4 hrs; type: toxicity, cell-based
How it was run: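 Direct cytotoxicity was scored as the fraction of Sytox blue-positive cells among human PBMCs cultured without other cells. The PBMCs were exposed to compounds at 10 μM, with 0.1% DMSO as vehicle, alongside a K562 killing assay, then stained with Sytox blue dead cell stain and run on an Attune NxT flow cytometer, with analysis in FlowJo. Each condition was tested in duplicate across three independent biological replicates, and one-way ANOVA with Dunnett's test was applied.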

[25] = Cytotoxicity against human PBMC cells at 10 uM incubated for 4 hrs in presence of MDP; type: toxicity, cell-based

SMILES: CCCCCC(CCCCC)C(=O)Oc1ccc(/C=C/C(=O)NCC(=O)N[C@H](C(=O)N[C@H](CCC(=O)OCC)C(=O)OCC)C(C)C)cc1OC
- Activity [1]: Non-toxic

SMILES: CCCCCC(CCC)C(=O)Oc1ccc(/C=C/C(=O)NCC(=O)N[C@H](C(=O)N[C@H](CCC(=O)OCC)C(=O)OCC)C(C)C)cc1OC (stereo partly specified)
- Activity [1]: Non-toxic

SMILES: CCCCCCCCCCCCCCCC(=O)Oc1ccc(/C=C/C(=O)NCC(=O)N[C@H](C(=O)N[C@H](CCC(=O)OCC)C(=O)OCC)C(C)C)cc1OC
- Activity [1]: Non-toxic

SMILES: CCOC(=O)[C@@H](CCC(=O)NCCCNCCCCNCCCN)NC(=O)[C@@H](NC(=O)CNC(=O)/C=C/c1ccc(O)c(OC)c1)C(C)C
- Activity [1]: Non-toxic
- Activity (PBMC [2]): Active
- Activity (PBMC [3]): Active
- Activity (PBMC [4]): Active
- Activity (PBMC [5]): Active
- Activity (PBMC [6]): Active
- Activity (PBMC [7]): Active
- Activity (PBMC [8]): Active
- Activity (PBMC [9]): Active
- Activity (PBMC [10]): Active
- Activity (PBMC [11]): Active
- Activity (PBMC [12]): Active
- Activity (PBMC [13]): Active
- Activity (PBMC [14]): Active
- Activity (PBMC [15]): Active
- Activity (PBMC [16]): Active
- Activity (PBMC [17]): Active
- Activity (PBMC [18]): Active
- Activity (PBMC [19]): Active
- Activity (PBMC [20]): Active
- Activity (PBMC [21]): Active
- Activity (PBMC [22]): Active
- Activity (PBMC [23]): inactive
- Activity [24]: Non-toxic
- Activity [25]: Non-toxic

SMILES: CCCCCCCCCCCCCC(=O)Oc1ccc(/C=C/C(=O)NCC(=O)N[C@H](C(=O)N[C@H](CCC(=O)OCC)C(=O)OCC)C(C)C)cc1OC
- Activity [1]: Non-toxic

SMILES: CCCCCC(C)C(=O)Oc1ccc(/C=C/C(=O)NCC(=O)N[C@H](C(=O)N[C@H](CCC(=O)OCC)C(=O)OCC)C(C)C)cc1OC (stereo partly specified)
- Activity [1]: Non-toxic

SMILES: CCOC(=O)[C@@H](CCC(=O)NCCCCN)NC(=O)[C@@H](NC(=O)CNC(=O)/C=C/c1ccc(O)c(OC)c1)C(C)C
- Activity [1]: Non-toxic

SMILES: CCOC(=O)CC[C@@H](NC(=O)[C@@H](NC(=O)CNC(=O)/C=C/c1ccc(OC(=O)CCCC2CCCCC2)c(OC)c1)C(C)C)C(=O)OCC
- Activity [1]: Non-toxic

SMILES: CCCCCC(=O)Oc1ccc(/C=C/C(=O)NCC(=O)N[C@H](C(=O)N[C@H](CCC(=O)OCC)C(=O)OCC)C(C)C)cc1OC
- Activity [1]: Non-toxic

SMILES: CCCCC/C=C\C/C=C\C/C=C\CCCCC(=O)Oc1ccc(/C=C/C(=O)NCC(=O)N[C@H](C(=O)N[C@H](CCC(=O)OCC)C(=O)OCC)C(C)C)cc1OC
- Activity [1]: Non-toxic

SMILES: CCCCC(CCCC)C(=O)Oc1ccc(/C=C/C(=O)NCC(=O)N[C@H](C(=O)N[C@H](CCC(=O)OCC)C(=O)OCC)C(C)C)cc1OC
- Activity [1]: Non-toxic

SMILES: CCOC(=O)[C@@H](CCC(=O)NCCCNCCCCN)NC(=O)[C@@H](NC(=O)CNC(=O)/C=C/c1ccc(O)c(OC)c1)C(C)C
- Activity [1]: Non-toxic

SMILES: CC/C=C\C/C=C\C/C=C\C/C=C\C/C=C\C/C=C\CCC(=O)Oc1ccc(/C=C/C(=O)NCC(=O)N[C@H](C(=O)N[C@H](CCC(=O)OCC)C(=O)OCC)C(C)C)cc1OC
- Activity [1]: Non-toxic

SMILES: CCCCC/C=C\C/C=C\CCCCCCCC(=O)Oc1ccc(/C=C/C(=O)NCC(=O)N[C@H](C(=O)N[C@H](CCC(=O)OCC)C(=O)OCC)C(C)C)cc1OC
- Activity [1]: Non-toxic

SMILES: CC/C=C\C/C=C\C/C=C\CCCCCCCC(=O)Oc1ccc(/C=C/C(=O)NCC(=O)N[C@H](C(=O)N[C@H](CCC(=O)OCC)C(=O)OCC)C(C)C)cc1OC
- Activity [1]: Non-toxic

SMILES: CCOC(=O)CC[C@@H](NC(=O)[C@@H](NC(=O)CNC(=O)/C=C/c1ccc(OC(=O)CCCCCCCCCCCCCO)c(OC)c1)C(C)C)C(=O)OCC
- Activity [1]: Non-toxic

SMILES: CCCCCCCCCCCC(=O)Oc1ccc(/C=C/C(=O)NCC(=O)N[C@H](C(=O)N[C@H](CCC(=O)OCC)C(=O)OCC)C(C)C)cc1OC
- Activity (PBMC [2]): Active
- Activity (PBMC [3]): Active
- Activity (PBMC [4]): Active
- Activity (PBMC [5]): Active
- Activity (PBMC [6]): Active
- Activity (PBMC [7]): Active
- Activity (PBMC [8]): Active
- Activity (PBMC [9]): Active
- Activity (PBMC [10]): Active
- Activity (PBMC [11]): Active
- Activity (PBMC [12]): Active
- Activity (PBMC [13]): Active
- Activity (PBMC [14]): Active
- Activity (PBMC [15]): Active
- Activity (PBMC [16]): Active
- Activity (PBMC [17]): Active
- Activity (PBMC [18]): Active
- Activity (PBMC [19]): Active
- Activity (PBMC [20]): Active
- Activity (PBMC [21]): Active
- Activity (PBMC [22]): Active
- Activity (PBMC [23]): inactive
- Activity [24]: Non-toxic

SMILES: CCOC(=O)[C@@H](CCC(=O)OCCN1CCOCC1)NC(=O)[C@@H](NC(=O)CNC(=O)/C=C/c1ccc(O)c(OC)c1)C(C)C
- Activity [1]: Non-toxic

SMILES: CCCCCCCC/C=C\CCCCCCCC(=O)Oc1ccc(/C=C/C(=O)NCC(=O)N[C@H](C(=O)N[C@H](CCC(=O)OCC)C(=O)OCC)C(C)C)cc1OC
- Activity [1]: Non-toxic

SMILES: CCCCCCC(CC)C(=O)Oc1ccc(/C=C/C(=O)NCC(=O)N[C@H](C(=O)N[C@H](CCC(=O)OCC)C(=O)OCC)C(C)C)cc1OC (stereo partly specified)
- Activity [1]: Non-toxic

SMILES: CCCCCCCCCC(=O)Oc1ccc(/C=C/C(=O)NCC(=O)N[C@H](C(=O)N[C@H](CCC(=O)OCC)C(=O)OCC)C(C)C)cc1OC
- Activity [1]: Non-toxic

SMILES: CCOC(=O)CC[C@@H](NC(=O)[C@@H](NC(=O)CNC(=O)/C=C/c1cc(OC)c(O)c(OC)c1)C(C)C)C(=O)OCC
- Activity [1]: Non-toxic

SMILES: CCCCCCCCCCCCCCCCCC(=O)Oc1ccc(/C=C/C(=O)NCC(=O)N[C@H](C(=O)N[C@H](CCC(=O)OCC)C(=O)OCC)C(C)C)cc1OC
- Activity [1]: Non-toxic

SMILES: CCCCC(CC)C(=O)Oc1ccc(/C=C/C(=O)NCC(=O)N[C@H](C(=O)N[C@H](CCC(=O)OCC)C(=O)OCC)C(C)C)cc1OC (stereo partly specified)
- Activity [1]: Non-toxic

SMILES: CCCCCCCC(=O)Oc1ccc(/C=C/C(=O)NCC(=O)N[C@H](C(=O)N[C@H](CCC(=O)OCC)C(=O)OCC)C(C)C)cc1OC
- Activity [1]: Non-toxic
